Test systems include ACHN renal; CCRF-CEM leukemia; EKVX NSCLC; HCT-116 colon; HOP-62 NSCLC; MCF7 breast; MDA-MB-231 breast; MDA-MB-435; MDA-N; NCI-H460 lung; OVCAR-3 ovarian; OVCAR-4 ovarian; OVCAR-5 ovarian; RPMI-8226 leukemia; SF-539 CNS; SK-OV-3 ovarian; SR leukemia; UO-31 renal; RXF 393 renal; SNB-19 CNS.
Common to all, as to assay: DTP human tumour cell line panel, 48 h

One may read the TGI as the concentration giving total growth inhibition. Read a low TGI as greater sensitivity of the cells.

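Step 1: Grow cells in 96-well plates. Step 2: Expose to compound for 48 hours at 5 concentrations. Step 3: Interpolate endpoints linearly; if unreached, use highest concentration. Definition used: TGI = concentration required for complete inhibition of growth.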

`CCOP(=O)(OCC)C(C)(C)N(C)/C(F)=N/C(F)(F)F`: the TGI with ACHN renal, with CCRF-CEM leukemia, in the assay on EKVX NSCLC, with HCT-116 colon, with HOP-62 NSCLC and with MCF7 breast was greater than 100 µM in each case. For the same compound, the TGI with MDA-MB-231 breast, in the assay with MDA-MB-435, in the assay on MDA-N, in the assay on NCI-H460 lung, in the assay on OVCAR-3 ovarian and with OVCAR-4 ovarian was greater than 100 µM throughout. Moreover, the concentration for total growth inhibition (TGI) in the assay on OVCAR-5 ovarian, in the assay with RPMI-8226 leukemia, in the assay on SF-539 CNS, in the assay on SK-OV-3 ovarian, in the assay on SR leukemia and with UO-31 renal was greater than 100 µM throughout.

As for `Oc1ccc2c(c1)CCc1c-2n(CCN2CCOCC2)c2ccc(O)cc12`, the TGI is 53 µM in the assay on ACHN renal; greater than 100 µM in the assay on CCRF-CEM leukemia; greater than 100 µM with EKVX NSCLC; greater than 100 µM with HCT-116 colon; greater than 100 µM with HOP-62 NSCLC; greater than 100 µM with MCF7 breast. Further, the TGI in the assay on MDA-MB-231 breast, in the assay with MDA-MB-435, with MDA-N, in the assay on NCI-H460 lung, with OVCAR-3 ovarian and with OVCAR-5 ovarian was greater than 100 µM each time. Further, the TGI with RPMI-8226 leukemia, in the assay on RXF 393 renal, in the assay with SF-539 CNS, in the assay on SK-OV-3 ovarian, with SNB-19 CNS and in the assay with SR leukemia was greater than 100 µM in each case. Besides, the concentration for total growth inhibition (TGI) in the assay with UO-31 renal was determined as 34.9 µM.

In the case of `O=C(c1ccccc1)c1ccc(N2C(=O)/C(=C/Cc3ccco3)N=C2c2ccccc2)c(N2C(=O)/C(=C/Cc3ccco3)N=C2c2ccccc2)c1`, the TGI with ACHN renal is greater than 100 µM; in the assay with CCRF-CEM leukemia, 53.5 µM; in the assay with EKVX NSCLC it was greater than 100 µM; in the assay with HCT-116 colon, greater than 100 µM; in the assay with HOP-62 NSCLC, greater than 100 µM; with MCF7 breast, greater than 100 µM. Further, the TGI in the assay on MDA-MB-231 breast is greater than 100 µM; with MDA-MB-435, 94.9 µM; in the assay with MDA-N, greater than 100 µM; with NCI-H460 lung, greater than 100 µM; in the assay on OVCAR-3 ovarian, 46.7 µM; in the assay on OVCAR-4 ovarian, greater than 100 µM. Besides, the TGI in the assay with OVCAR-5 ovarian is greater than 100 µM; in the assay on RPMI-8226 leukemia it was 91.3 µM; in the assay on SF-539 CNS, 32.7 µM; in the assay on SK-OV-3 ovarian it was 83 µM; in the assay on SNB-19 CNS it was greater than 100 µM; with SR leukemia, greater than 100 µM. In the assay with UO-31 renal, the TGI was greater than 100 µM.

As for `Clc1c(Cl)c(Cl)c2c(nnn2C2CCCO2)c1Cl` (stereo not given), the TGI in the assay with CCRF-CEM leukemia is 77.9 µM; with EKVX NSCLC, 73.4 µM; in the assay with HCT-116 colon, greater than 100 µM; in the assay with HOP-62 NSCLC it was greater than 100 µM; with MCF7 breast, greater than 100 µM; in the assay with MDA-MB-231 breast it was greater than 100 µM. Further, the TGI with MDA-MB-435 is greater than 100 µM; in the assay with MDA-N, 74.3 µM; with NCI-H460 lung, 41.8 µM; with OVCAR-3 ovarian, greater than 100 µM; with OVCAR-4 ovarian it was 54.5 µM; in the assay on OVCAR-5 ovarian, greater than 100 µM. In addition, the concentration for total growth inhibition (TGI) with RXF 393 renal was greater than 100 µM; in the assay on SF-539 CNS, greater than 100 µM; in the assay on SK-OV-3 ovarian, greater than 100 µM; with SR leukemia, 91.4 µM.

For the compound `CC(=O)N(C)c1ccc(N=CN(C)C)cc1`, the TGI in the assay on ACHN renal, in the assay with CCRF-CEM leukemia, with EKVX NSCLC, in the assay on HCT-116 colon, with HOP-62 NSCLC and in the assay on MCF7 breast was greater than 100 µM each time. In addition, the TGI with MDA-MB-231 breast, in the assay with MDA-MB-435, in the assay with MDA-N, in the assay with OVCAR-3 ovarian, with OVCAR-4 ovarian and in the assay with OVCAR-5 ovarian was greater than 100 µM in each case. For the same compound, the TGI in the assay with RPMI-8226 leukemia, with RXF 393 renal, in the assay on SF-539 CNS, in the assay on SK-OV-3 ovarian, with SNB-19 CNS and in the assay on SR leukemia was greater than 100 µM each time. This compound also yielded a TGI in the assay on UO-31 renal greater than 100 µM.

In the case of `CC(=O)OCC(OC(C)=O)C(OC(C)=O)C(/C=N\Nc1nc2ccccc2c(=O)[nH]1)=N\Nc1nc2ccccc2c(=O)[nH]1` (stereo not given), the TGI in the assay with ACHN renal, in the assay on CCRF-CEM leukemia, with EKVX NSCLC, in the assay with HCT-116 colon, in the assay on HOP-62 NSCLC and in the assay with MCF7 breast was greater than 100 µM throughout. Further, the TGI with MDA-MB-231 breast was greater than 100 µM; with MDA-MB-435, greater than 100 µM; in the assay on MDA-N, greater than 100 µM; in the assay on NCI-H460 lung, 47.6 µM; in the assay with OVCAR-3 ovarian, greater than 100 µM; in the assay on OVCAR-5 ovarian, greater than 100 µM. In addition, the TGI in the assay with RPMI-8226 leukemia, with RXF 393 renal, in the assay on SF-539 CNS, in the assay with SK-OV-3 ovarian, in the assay on SNB-19 CNS and with SR leukemia was greater than 100 µM in each case. For the same compound, in the assay with UO-31 renal, the TGI is greater than 100 µM.

Turning to `COc1cc(/C=C2/SC(c3ccccc3)N(Cc3ccccc3)C2=O)cc(OC)c1OC` (stereo not given), the TGI in the assay on ACHN renal, with EKVX NSCLC, with HCT-116 colon, in the assay on HOP-62 NSCLC, in the assay on MCF7 breast and with MDA-MB-231 breast was greater than 100 µM throughout. Also, the TGI with MDA-MB-435, in the assay with MDA-N, in the assay on NCI-H460 lung, in the assay on OVCAR-3 ovarian, with OVCAR-4 ovarian and in the assay with OVCAR-5 ovarian was greater than 100 µM in each case. In addition, the TGI in the assay with RPMI-8226 leukemia is 75.1 µM; with RXF 393 renal, 72.3 µM; with SK-OV-3 ovarian, greater than 100 µM; in the assay with SNB-19 CNS, greater than 100 µM; in the assay with SR leukemia, 45.1 µM; with UO-31 renal, greater than 100 µM.

On to `O=C1NC(=S)N/C1=C\c1cc2c(=O)c3ccccc3sc2s1`, for which the TGI with ACHN renal, in the assay on EKVX NSCLC, with HCT-116 colon, in the assay on HOP-62 NSCLC, in the assay with MCF7 breast and in the assay with MDA-MB-231 breast was greater than 100 µM throughout. The concentration for total growth inhibition (TGI) with MDA-MB-435, in the assay on MDA-N, with NCI-H460 lung, in the assay on OVCAR-3 ovarian, in the assay on OVCAR-4 ovarian and in the assay with OVCAR-5 ovarian was greater than 100 µM throughout. The TGI in the assay on RPMI-8226 leukemia, in the assay with RXF 393 renal, in the assay with SNB-19 CNS, with SR leukemia and in the assay with UO-31 renal was greater than 100 µM each time.
